Data set [1] deals with Croton oil induced oedema in the mouse ear. Briefly: Test of topical antiinflammatory activity: Croton oil dermatitis in the mouse ear. It counts as in vivo. The note with it: for ID50 (dose level able to reduce by 50% the oedematous response): linear interpolation from the dose-response relationship, indomethacin value confirmed from past data; for Inhibition (%) of oedema / Oedema (mg) m ± E.S.: 6 hours. As to the method:
3. Test of Topical Antiinflammatory Activity
The antiinflammatory activity of Asialene and L-Asialene was evaluated in comparison to that of the NSAID indomethacin. As experimental model, the Croton oil dermatitis induced in the mouse ear was used (Tubaro et al., Agents & Actions 17: 347-349).
The experimental inflammation was induced on the right ear (surface: about 1 cm^2) of anaesthetised mice (145 mg/kg ketamine hydrochloride i.p.) by application of 80 μg of Croton oil (Sigma-Italy) in 15 μl acetone on the right ear of mice, the left remaining untreated. The tested substances were dissolved in the Croton oil solution. Six hours after the dermatitis induction, the animals were sacrificed and a punch (6 mm diameter) was excised from both the treated and the untreated ears and weighed. The Croton oil induced oedema was quantified by measuring the difference in weight between the treated and untreated (opposite) ear samples. The anti-oedema activity was expressed as percent inhibition of the oedematous response in animals treated with the test substances in comparison to the animals treated with the irritant alone. Male albino Swiss mice CD-1 (Harlan-Italy), weighing 20-32 g, were used. For each substance and dose level, 10 animals were used.
The effects on the vascular response were evaluated as percent oedema inhibition. […] For each substance, the dose level able to reduce by 50% the oedematous response (ID50) was calculated by linear interpolation from the dose-response relationship.
Asialene and L-Asialene were administered at equimolar doses.

For data set [2] the following is noted: prior art statement; cited from earlier work.
Data set [3] concerns human endothelial cells. Description: Fibronectin evaluation (immunofluorescence, intercellular strands) in human endothelial cells in culture. It counts as cell-based. The note with it: 1.5 μg/ml; after 48 hours; culture medium + EtOH 0.75 g/dl. As to the method: (§1) 1. Test of Production of PG1 and of Fibronectin from Human Endothelial Cells in Culture.
For the Fibronectin evaluation, the primary cultures were resuspended in 0.05% Trypsin/0.02% EDTA. The cells, washed twice in Hanks solution, were counted in order to assure at least 300,000 cells/ml and seeded. After 48 hours the supernatant was removed and the slides were prepared, which after being washed 2 times with PBS, and dried, were fixed in acetic acid/ethanol for 30 minutes; a washing with PBS was then carried out and added the polyclonal rabbit anti-human fibronectin antibody (1:40, Dako). After incubation at room temperature for 30 minutes, it was washed with PBS and the fluoresceinated anti-rabbit immunoglobulin antibody was added (1:100, Dako). The slides were left in incubation for 30 minutes and then mounted on an object holder and read with a fluorescence electronic microscope.
In the following table, the numbers relating to fibronectin intercellular strands (1:100 scale) are reported.

The test system of data set [4] is human endothelial cells. Briefly: Production of PG1 (6-Keto PGF1, RIA) from human endothelial cells in culture. It counts as cell-based. The note with it: Asialene 1.5 μg/ml, culture medium + EtOH 0.75 g/dl. As to the method:
as §1
The activity of the salt prepared in the Example 1, indicated as Asialene, on cicatrization was evaluated by an in vitro test which allows to deduce the effects of the substance on the vascular permeability and on the cicatrization.
The test consists in the evaluation of the production of PG1 from cells extracted by collagenase from vein of human omphalic funicle suspended and seeded in a suitable culture medium (E199+FCS 20%+L-Glutamine 2 mM+Penicillin 200 U/ml+Streptomycin 200 μg/ml) cultured in 75 or 25 ml flasks for 48-72 hours.
After removing the cells with 0.05% Trypsin and 0.02% EDTA the subcultures were prepared using secondary cultures seeded on a 35 mm Petri dish, kept in an incubator with 5% CO2 and 100% humidity. For the evaluation of the cell morphology and confluence and the PG1 production, about 300,000 cells/ml of culture medium were used carrying out the count in a Burker chamber, following three schemes: • 1. Cells+culture medium+EtOH(0.75 g/dl) • 2. Cells+culture medium+EtOH(0.75 g/dl)+FTT([…]) • 3. […]
The cultures were evaluated with an inverse light microscope, at 24 and 48 hours monitoring cell attachment and growth while on supernatant aliquots the stable metabolite of the prostacyclin (6-Keto PGF1) was assayed with RIA method. […]

Another data set relates to platelet. Description: Evaluation of the platelet aggregation inhibiting effect in PRP. The note with it: 70 μg/ml. It counts as cell-based, human. As for the experimental part: 2. Evaluation of the Platelet Aggregation Inhibiting Effect
Blood taken from healthy volunteers not submitted to pharmacological therapy during one week, was gathered in polyethylene test-tubes containing 3.8% sodium citrate in 1:9 ratio, and centrifuged at 1000 g for 10 minutes in order to obtain plasma having a high platelet content (PRP) and at 3000 g for 15 minutes in order to obtain plasma having a low platelet content (PPP). Two […] PRP samples (300,000+/−10000 platelet/ml final concentration) were submitted to incubation at 37° C. for 60 seconds in presence of 100 μl FTT (700 μg/ml) and 10 μl of Asialene ([…]) respectively. Each sample was divided in three portions which were treated with 10 μl of a platelet aggregation agent, ADP ([…] final concentration), collagen (4 μg/ml final concentration) and arachidonic acid (0.2 mg/ml final concentration) respectively, and the aggregation was recorded for 4 minutes.

As for `COc1ccc2c(c1)c(CC(=O)O)c(C)n2C(=O)c1ccc(Cl)cc1` [Indomethacin, indomethacin, reference compound], in data set [1], the “ID50 (dose level able to reduce by 50% the oedematous response)” value turned out to be 90 μg/cm^2. In data set [1] (topical dose 90 μg/cm^2), the “Inhibition (%) of oedema” value amounted to 49.3% and the “Oedema (mg) m ± E.S.” value came out at 3.5 ± 0.4 mg.

On to `C[C@@H]1CC[C@]2(C(=O)O)CC[C@]3(C)C(=CCC4[C@@]5(C)C[C@@H](O)[C@H](O)[C@@](C)(CO)C5CC[C@]43C)C2[C@H]1C` (stereo partly drawn) [asiatic, 2α, 3β, 23-trihydroxyurs-12-en-28-oic acid], for which the solubility in water entry in data set [2] is given as “almost total insolubility in water”.

As to `C[C@H]1[C@H](C)CC[C@]2(C(=O)O)CC[C@]3(C)C(=CC[C@@H]4[C@@]5(C)C[C@@H](O)[C@H](O)[C@@](C)(CO)[C@@H]5[C@H](O)C[C@]43C)[C@H]12` [madecassic acid], in data set [2], the solubility in water entry is “almost total insolubility in water”.

For “Salt of the Asiatic Acid with Ethylenediamine [Asialene]”, in data set [1], the “ID50 (dose level able to reduce by 50% the oedematous response)” value is 62 μg/cm^2. For the same compound, the “Inhibition (%) of oedema” value stood at 27.5% in data set [1] (topical dose 30 μg/cm^2), 68.1% in data set [1] (topical dose 100 μg/cm^2), 91.3% in data set [1] (topical dose 300 μg/cm^2) and 94.2% in data set [1] (topical dose 1000 μg/cm^2). Besides, the “Oedema (mg) m ± E.S.” value is 5.0 ± 0.4 mg in data set [1] (topical dose 30 μg/cm^2, control 6.9 ± 0.2); 2.2 ± 0.5 mg in data set [1] (topical dose 100 μg/cm^2, control 6.9 ± 0.2); 0.6 ± 0.1 mg in data set [1] (topical dose 300 μg/cm^2, control 6.9 ± 0.2); 0.4 ± 0.1 mg in data set [1] (topical dose 1000 μg/cm^2, control 6.9 ± 0.2). For the same compound, in data set [1] (versus indomethacin), the “potency higher than that of the reference drug (comparison between the ID50 values)” value amounted to 50%. Moreover, the “fibronectin intercellular strands (1:100 scale)” value in the data set with human endothelial cells [3] amounted to 85. Moreover, the “6-Keto PGF1” value was found to be 980 µg/mL with human endothelial cells [4] (24 h) and 889 µg/mL with human endothelial cells [4] (48 h). Also, the “Aggregation from arachidonic acid (0.2 mg/ml)” value in the data set with platelet (controls 81) was found to be 23. Also, in the data set with platelet (controls 88), the “Aggregation from ADP (4 mM)” value is listed as 32. The “Aggregation from collagen (4 μg/ml)” value with platelet (controls 100) is recorded as 50.
